Assay results published in patent publication US20210054047A1, “NOVEL ANTICANCER FUSION PROTEIN AND USE THEREOF” (KOREA INSTITUTE OF SCIENCE AND TECHNOLOGY, priority 2018, published 2021).

What was measured:
[1] = system: DR5; test: Western blot time course of DR5 levels in HT29; type: cell-based, human; details: HT29, 4, 12 and 24 hours
[2] = over 1 month (Kih et al.); cited from earlier work
[3] = system: PARP; test: Western blot of HT29 lysates: PARP; type: cell-based, human; details: HT29, 24 hours
Experimental: (§1) After incubating HT29 cells with 50 nM DOX-TTPNs, DOX-FTNs, free DOX, or buffer for 24 hours, cells were lysed with radioimmunoprecipitation assay (RIPA) buffer (Cell Signaling Technology) and the concentration of proteins was measured using a DC protein assay kit (Bio-Rad). Equal amounts of proteins (30 μg) were resolved by SDS-PAGE and transferred to nitrocellulose membranes. After blocking with 5% skim milk in Tris-buffered saline containing 0.1% Tween-20 (TBST), membranes were incubated first with anti-Cl-PARP, anti-Cl-caspase-6, anti-cFLIP, anti-Bcl-xL, anti-XIAP, anti-Cl-caspase-3, or anti-GAPDH primary antibody (Cell Signaling Technology), and then with anti-mouse or anti-rabbit secondary antibodies (Sigma-Aldrich), as appropriate. Immunoreactive proteins were visualized using enhanced chemiluminescence (ECL) chemical reagents (Bio-Rad) and ChemiDoc (Bio-Rad), and were analyzed using ImageJ software.

[4] = system: XIAP; test: Western blot of HT29 lysates: XIAP; type: cell-based, human; details: HT29, 24 hours
Experimental: as §1

[5] = system: HepG2 cells; test: Annexin V/PI flow cytometry of apoptosis, HepG2; type: cell-based, human; details: for surviving tumor cells (Annexin V/PI double negative): 24 hours
Experimental: FIG. 19 is a series of histograms representing flow cytometry analysis of TRAIL-mediated apoptosis of HepG2 cells as an analysis of in vitro TTPN-mediated apoptosis on TRAIL-sensitive-HepG2 cells. Cells were incubated for 24 hours in the presence of different concentrations of mTRAIL and TTPN and analyzed by Annexin V/PI double staining.
In addition, to investigate whether apoptosis induced by TTPN is induced by the pro-apoptosis pathway of tumor cells, fluorescence-activated cell sorting (FACS) using double staining of Annexin V/propidium iodide (PI) was performed. […] (FIG. 21).

[6] = system: HepG2 cells; test: Cell viability, CCK-8 assay, HepG2; type: cell-based, human; details: TRAIL-sensitive HepG2 cells, 24 hours (FIG. 17)
Experimental: After culturing for 24 hours, cell viability was measured using a cell counting kit (CCK)-8 assay (Dojindo Molecular Technologies, Gaithersburg, Md.). The plate was then read with an absorbance microplate reader (Spectramax 340, Molecular Devices Corporation) at a wavelength of 450 nm and 50% effective by regression analysis using SigmaPlot software (Systat Software, Inc., San Jose, Calif.). The concentration value was calculated.

[7] = system: cleaved form of caspase-3; test: Western blot of HT29 lysates: cleaved caspase-3; type: cell-based, human; details: HT29, 50 nM, 24 hours
Experimental: as §1

[8] = system: HT29 tumor; test: TUNEL analysis of HT29 tumor tissue; type: in vivo, mouse; details: HT29 tumor tissue at the end of the study
[9] = target: T1, DR4 (Homo sapiens, UniProt O00220); test: SPR binding to immobilized DR4-Fc
T1 construct: purchased R&D systems 347-DR-100
T1 sequence (O00220 with tags, fused parts or gaps limits assumed): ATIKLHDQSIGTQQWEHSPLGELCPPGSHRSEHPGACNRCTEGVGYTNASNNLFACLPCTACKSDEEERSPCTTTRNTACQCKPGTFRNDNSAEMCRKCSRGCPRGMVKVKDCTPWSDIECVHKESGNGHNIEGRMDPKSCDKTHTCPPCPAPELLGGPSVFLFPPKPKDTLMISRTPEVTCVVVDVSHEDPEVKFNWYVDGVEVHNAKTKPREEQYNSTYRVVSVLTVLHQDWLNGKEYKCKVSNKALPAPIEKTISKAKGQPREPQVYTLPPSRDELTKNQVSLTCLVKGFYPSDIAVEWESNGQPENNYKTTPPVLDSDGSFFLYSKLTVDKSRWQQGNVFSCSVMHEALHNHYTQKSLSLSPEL
Experimental: Binding experiments of TTPN and mTRAIL to TRAIL receptors DR4 and DR5 were analyzed at 25° C. using a surface plasmon resonance apparatus (SR7500 DC, Reichert Inc., NY, USA). DR4 and DR5-fc chimeric proteins (R&D systems 347-DR-100, 631-T2-100) were immobilized on the surface of the Planar Protein A sensor chip (Reichert, 13206069) and the receptors were coated at a level of 300 to 500 resonance units. SPR kinetic titrations were performed by adding 250 μl of TTPN and mTRAIL with different concentrations in the range of 1.56 to 400 nM and 0.1 to 25.6 μM, respectively, increasing by four times. Each analyte was run at 50 μL/min using running and sample buffer (0.5 M Tris-HCl (pH 7.4), 150 mM NaCl, 0.005% Tween 20), and binding of the ligand to the receptor was performed and monitored in real time. For titration sensorgrams, a simple 1:1 Langmuir interaction model (A+B↔AB) was applied using the data analysis program Scrubber 2.0 (BioLogic Software, Australia, and KaleidaGraph Software, Australia) and CLAMP software.
The affinity KD was determined from the formula of KD=kd/ka. Results are based on representative sensorgrams obtained from saturation binding reactions averaged over at least three independent runs of SPR measurements (FIG. 31).

[10] = system: HepG2 tumor; test: Antitumor efficacy, HepG2 xenograft; type: in vivo, mouse
Description: In the evaluation of the anti-tumor effect of the present invention, BALB/c nude male mice (6-7 weeks old) were used as an animal model. Particularly, HT29 cells (5×10^6) and HepG2 cells (5×10^6) were subcutaneously inoculated into the left dorsal flank of BALB/c nude mice, respectively. After a volume of tumors reached ˜80-100 mm^3, mice were randomly divided into the 14 following five treatment groups (6 mice/group); DOX-TTPNs, DOX-FTNs, free DOX, empty TTPNs, and buffer. Mice were intravenously injected five times, once every 2 days, and volume of tumors was determined as 1/2(Length×Width^2). Apoptotic cell death in tumor tissues was analyzed using TUNEL staining (In situ Cell Death Detection kit; Roche), and cells were stained with DAPI (4′,6-diamidino-2-phenylindole), as previously described (Kih et al., Biomaterials 180: 67-77, 2018). Apoptotic cells were visualized under a Nikon Eclipse Ti microscope (Nikon) and quantified as the number of TUNEL-positive cells per total number of cells using ImageJ software. After 21 days from injecting tumor cells, tumor tissues were excised from the experimental mice, and cryo-sections (3.5 μm) were fixed with 10% neutral buffered formalin and paraffin-embedded tissue blocks.
In addition, to investigate whether tumor growth inhibition by TTPN is induced by apoptosis-inducing activity on tumor cells, tumor tissues from the treated mice were analyzed. On the 15th day after the first injection, mice were euthanized, and apoptosis of tumor tissues was analyzed using terminal deoxynucleotidyl transferase dUTP nick end labeling (TUNEL) staining.

Substance: TTPN: protein nanocage presenting TRAIL as natural-like homo-trimers; TRAIL 95-281 fused by linker peptide to human ferritin heavy chain
- DR5 expression levels over time [1]: no significant change
- stability [2]: more than 90%
- increase in PARP relative to buffer-treated controls (defined as 1) [3]: 457 fold
- decrease in XIAP levels compared with buffer treatment [4]: no significant effect
- surviving tumor cells (Annexin V/PI double negative) ([5]; HepG2, 0.4 nM): 83.5%
- surviving tumor cells (Annexin V/PI double negative) ([5]; HepG2, 100 nM): 12.0%
- concentration at which Annexin V-positive cells were detected ([5]; HepG2, 24 hours (FIG. 20)): 0.4 nM
- apoptosis [6]: concentration-dependent apoptosis
- cleaved caspase-3 (and PARP) expression [7]: little change
- TUNEL-positive tumor cells [8]: 0.01%
- ka ([9]; DR4-Fc immobilized, 25° C.): 3.23 (±0.26) · 10^4 M^−1 · S^−1
- kd ([9]; DR4-Fc immobilized, 25° C.): 2.42 (±0.48) · 10^−5 s^−1
- increased affinity compared with monomeric TRAIL ([9]; for DR4 and DR5): up to 330 fold
- tumor volume inhibition relative to mTRAIL [10]: 3.1 times
- inhibition of tumor volume ([10]; i.v. every 2 days, TTPN 23 mg/kg, mTRAIL 12 mg/kg): 80.52%
